Measurements reported in PMC12596218 (Journal of Lipid Research, 2025).

T1: ASBT (Homo sapiens, UniProt Q12908)
T1 construct: stably transfected with the full open reading frames of human NTCP, ASBT, SOAT, OATP1B1, OATP1B3, OATP2B1, and murine Asbt (mAsbt); expressed in transfected cells; host or cells: HEK293 (Flp-In), stably transfected, tetracycline-induced
T1 sequence (Q12908 1-348): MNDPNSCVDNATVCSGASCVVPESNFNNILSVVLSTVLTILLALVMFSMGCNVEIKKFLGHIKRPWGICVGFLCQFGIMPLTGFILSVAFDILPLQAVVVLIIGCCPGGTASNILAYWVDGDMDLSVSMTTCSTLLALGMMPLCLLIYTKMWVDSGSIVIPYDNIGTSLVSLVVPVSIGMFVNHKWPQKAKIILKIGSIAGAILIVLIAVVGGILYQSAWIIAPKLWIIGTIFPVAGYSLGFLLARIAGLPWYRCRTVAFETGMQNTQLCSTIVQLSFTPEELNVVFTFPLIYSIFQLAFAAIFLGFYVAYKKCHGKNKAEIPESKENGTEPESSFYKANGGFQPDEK

T2: SOAT (Homo sapiens, UniProt Q3KNW5)
T2 construct: stably transfected with the full open reading frames of human NTCP, ASBT, SOAT, OATP1B1, OATP1B3, OATP2B1, and murine Asbt (mAsbt); expressed in transfected cells; host or cells: HEK293 (Flp-In), stably transfected, tetracycline-induced
T2 sequence (Q3KNW5 1-377): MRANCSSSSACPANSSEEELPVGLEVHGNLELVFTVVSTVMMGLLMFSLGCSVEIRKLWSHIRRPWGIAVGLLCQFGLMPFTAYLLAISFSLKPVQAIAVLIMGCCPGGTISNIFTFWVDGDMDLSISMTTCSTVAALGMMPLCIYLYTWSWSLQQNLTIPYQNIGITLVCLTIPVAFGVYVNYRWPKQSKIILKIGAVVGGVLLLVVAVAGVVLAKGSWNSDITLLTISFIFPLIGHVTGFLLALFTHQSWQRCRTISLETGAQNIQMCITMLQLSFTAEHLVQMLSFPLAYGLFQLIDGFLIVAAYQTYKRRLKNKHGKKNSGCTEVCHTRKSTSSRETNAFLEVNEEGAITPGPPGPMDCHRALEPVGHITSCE


Columns and labels:
mAsbt [1] = settings: ref 42 Hallén et al. (2002); read-out: Ki mAsbt inhibition; cited from earlier work
mAsbt [2] = experiment: mAsbt inhibition and TC transport by Hallén et al. (2002); type: cell-based, mouse; settings: from Ki values of ref 42
ASBT [3] = biological target: T1, ASBT; experiment: Transport inhibition and recovery assay (inhibitor washout) in ASBT-HEK293 cells; type: cell-based; settings: 100 μM inhibitor, 5 min preincubation, 1 μM [3H]TC
ASBT [4] = biological target: T1, ASBT; experiment: as above; type: cell-based; settings: 100 μM inhibitor 5 min, 240 min recovery
Description: HEK293 cells stably expressing ASBT were seeded onto poly-L-lysine-coated 96-well plates, induced with 1 μg/ml tetracycline, and grown to confluence over 72 h at 37°C. Non-carrier-expressing HEK293 cells were used as control. Then, cells were washed with tempered (37°C) PBS and equilibrated for 5 min with STB. […] After inhibitor preincubation, cells were washed with tempered (37°C) PBS and further incubated in inhibitor-free DMEM (Thermo Fisher Scientific) for 30, 60, 120, or 240 min at 37°C. […] Finally, cell associated radioactivity was determined using the MicroBeta2 liquid scintillation counter (Revvity). For each inhibitor, the mean values from noncarrier-expressing HEK293 cells were set to 0% and transport measurements in the absence of inhibitor (solvent control) were set to 100%.
In the second setup, the inhibitor was thoroughly washed out after the preincubation phase and cells were placed on inhibitor-free medium for different time intervals of 0–240 min (indicated by “recovery time” in Fig. 7A).

SOAT = biological target: T2, SOAT; experiment: [3H]DHEAS transport inhibition assay in SOAT-HEK293 cells; type: cell-based; settings: inhibitor at 100 μM, 1 μM [3H]DHEAS, 10 min
From the text: (§1) Human embryonic kidney HEK293 cells, stably transfected with the full open reading frames of human NTCP, ASBT, SOAT, OATP1B1, OATP1B3, OATP2B1, and murine Asbt (mAsbt) were used as reported ([18], [20], [21], [22], [23]). The NTCP, ASBT, and mAsbt constructs were C-terminally tagged with the FLAG epitope, and the SOAT construct was C-terminally tagged with green fluorescent protein. Non-transfected Flp-In HEK293 cells (Thermo Fisher Scientific) served as the control. All cell lines were maintained at 37°C, 5% CO2 and 95% humidity in DMEM/F-12 medium (Thermo Fisher Scientific) supplemented with 10% fetal calf serum (Sigma-Aldrich), 4 mM L-glutamine (PAA) and penicillin/streptomycin (PAA). Expression of the respective carrier protein was induced by tetracycline treatment at 1 μg/ml (Carl Roth GmbH + Co. KG).
(§2) Cells were seeded onto poly-L-lysine-coated 96-well plates, induced with 1 μg/ml tetracycline, and grown to confluence over 72 h at 37°C. Then, cells were washed with tempered (37°C) phosphate-buffered saline (PBS, containing 137.0 mM NaCl, 2.7 mM KCl, 1.5 mM KH2PO4, and 7.3 mM Na2HPO4, at pH 7.4) and preincubated with 80 μl sodium transport buffer (STB, containing 142.9 mM NaCl, 4.7 mM KCl, 1.2 mM MgSO4, 1.2 mM KH2PO4, 1.8 mM CaCl2, and 20.0 mM HEPES, at pH 7.4) for 5 min at 37°C. For inhibition studies, the medium was replaced by 80 μl STB containing the respective inhibitor or solvent alone and cells were further incubated for 5 min at 37°C. Transport experiments were started by adding 20 μl of a 5-fold concentrated substrate solution (solved in STB). For transport experiments under sodium-free conditions the same buffer composition was used as for STB, but sodium chloride was substituted with equimolar concentrations of choline chloride as previously reported ([20], [24]). Transport experiments were stopped by washing twice with ice-cold PBS and the plates were kept cool on ice until adding the lysis buffer [1% sodium dodecyl sulfate (SDS) and 1 N NaOH]. Then, the cell-associated radioactivity of the respective tritium-labeled substrate or ligand was quantified by liquid scintillation counting using MicroScint-20 scintillation cocktail (Revvity) in a Packard Microplate Scintillation Counter TopCount NXT (Packard Instrument Company). For IC50 transport inhibition measurements, the mean uptake values measured in non-carrier-expressing HEK293 control cells were defined as 0% uptake control and were subtracted from all other values. Values from cells without inhibitor and solvent alone were set to 100%. Finally, all net transport data were expressed as uptake or binding as % of control. All transport or inhibition graphs were generated with GraphPad Prism 6 (GraphPad). Determination of half maximal inhibitory concentrations (IC50) was done by nonlinear regression analysis using the equation log (inhibitor) versus response—variable slope settings. All data points of the IC50 curves represent means ± SD of quadruplicate determinations. For Km measurements, BS uptake in the absence of sodium was regarded as carrier-independent unspecific uptake and was subtracted from the transport rates in the presence of sodium to obtain carrier-specific uptake rates (indicated as dashed lines). From the specific uptake rates, Michaelis Menten Km values were calculated by non-linear regression analysis.

ASBT [5] = biological target: T1, ASBT; experiment: [3H]TC transport and inhibition assay in ASBT-HEK293 cells; type: cell-based; settings: inhibitor at 100 μM, 1 μM [3H]TC, 10 min
From the text: as §1, §2

[6] = substrate: C[C@H](CCC(=O)NCCS(=O)(=O)O)[C@H]1CC[C@H]2[C@@H]3[C@H](O)C[C@@H]4C[C@H](O)CC[C@]4(C)[C@H]3C[C@H](O)[C@]12C; experiment: cells, lysate or membranes; settings: other: sodium-dependent specific uptake, initial linear phase, pH 7.4

Molecule | Km ([6]; 37.0 °C) | Km [6] | other results
CCCC[C@]1(CC)CS(=O)(=O)c2ccccc2[C@@H](c2ccccc2)N1 [2164U90] |  |  | Ki (mAsbt [1]): 68 nM; Difference in inhibitor potency mAsbt versus ASBT (mAsbt [2]): 150 fold
Cc1c(C)c2c(c(C)c1O)CCC(C)(COc1ccc(CC3SC(=O)NC3=O)cc1)O2 (stereo not drawn) [troglitazone] |  |  | ASBT inhibition with inhibitor present during uptake (inhibitor + [3H]TC) (ASBT [3]): nearly complete ASBT inhibition; ASBT recovery after washout and 240 min in inhibitor-free medium (ASBT [4]): only partial recovery; Inhibition of SOAT [3H]DHEAS transport (SOAT): significantly inhibited; Inhibition of ASBT [3H]TC transport (ASBT [5]): significantly inhibited
ASBT (Homo sapiens) (protein) MNDPNSCVDNATVCSGASCVVPESNFNNILSVVLSTVLTILLALVMFSMGCNVEIKKFLGHIKRPWGICVGFLCQFGIMPLTGFILSVAFDILPLQAVVVLIIGCCPGGTASNILAYWVDGDMDLSVSMTTCSTLLALGMMPLCLLIYTKMWVDSGSIVIPYDNIGTSLVSLVVPVSIGMFVNHKWPQKAKIILKIGSIAGAILIVLIAVVGGILYQSAWIIAPKLWIIGTIFPVAGYSLGFLLARIAGLPWYRCRTVAFETGMQNTQLCSTIVQLSFTPEELNVVFTFPLIYSIFQLAFAAIFLGFYVAYKKCHGKNKAEIPESKENGTEPESSFYKANGGFQPDEK | 46.0 µM |  | 
murine Asbt (mAsbt) (Mus musculus) (protein) MDNSSVCPPNATVCEGDSCVVPESNFNAILNTVMSTVLTILLAMVMFSMGCNVEVHKFLGHIKRPWGIFVGFLCQFGIMPLTGFILSVASGILPVQAVVVLIMGCCPGGTGSNILAYWIDGDMDLSVSMTTCSTLLALGMMPLCLFVYTKMWVDSGTIVIPYDSIGISLVALVIPVSFGMFVNHKWPQKAKIILKIGSITGVILIVLIAVIGGILYQSAWIIEPKLWIIGTIFPIAGYSLGFFLARLAGQPWYRCRTVALETGMQNTQLCSTIVQLSFSPEDLNLVFTFPLIYTVFQLVFAAVILGIYVTYRKCYGKNDAEFLEKTDNEMDSRPSFDETNKGFQPDEK | 272.3 µM |  | 
NTCP (Homo sapiens) (protein) MEAHNASAPFNFTLPPNFGKRPTDLALSVILVFMLFFIMLSLGCTMEFSKIKAHLWKPKGLAIALVAQYGIMPLTAFVLGKVFRLKNIEALAILVCGCSPGGNLSNVFSLAMKGDMNLSIVMTTCSTFCALGMMPLLLYIYSRGIYDGDLKDKVPYKGIVISLVLVLIPCTIGIVLKSKRPQYMRYVIKGGMIIILLCSVAVTVLSAINVGKSIMFAMTPLLIATSSLMPFIGFLLGYVLSALFCLNGRCRRTVSMETGCQNVQLCSTILNVAFPPEVIGPLFFFPLLYMIFQLGEGLLLIAIFWCYEKFKTPKDKTKMIYTAATTEETIPGALGNGTYKGEDCSPCTA | 90.9 µM |  | 
ASBT S294T/I295V (ASBT→mAsbt) (Homo sapiens; I295V/S294T) (protein) MNDPNSCVDNATVCSGASCVVPESNFNNILSVVLSTVLTILLALVMFSMGCNVEIKKFLGHIKRPWGICVGFLCQFGIMPLTGFILSVAFDILPLQAVVVLIIGCCPGGTASNILAYWVDGDMDLSVSMTTCSTLLALGMMPLCLLIYTKMWVDSGSIVIPYDNIGTSLVSLVVPVSIGMFVNHKWPQKAKIILKIGSIAGAILIVLIAVVGGILYQSAWIIAPKLWIIGTIFPVAGYSLGFLLARIAGLPWYRCRTVAFETGMQNTQLCSTIVQLSFTPEELNVVFTFPLIYTVFQLAFAAIFLGFYVAYKKCHGKNKAEIPESKENGTEPESSFYKANGGFQPDEK |  | 25.9 µM | 
NTCP M290T/I291V (NTCP→mAsbt) (Homo sapiens; I291V/M290T) (protein) MEAHNASAPFNFTLPPNFGKRPTDLALSVILVFMLFFIMLSLGCTMEFSKIKAHLWKPKGLAIALVAQYGIMPLTAFVLGKVFRLKNIEALAILVCGCSPGGNLSNVFSLAMKGDMNLSIVMTTCSTFCALGMMPLLLYIYSRGIYDGDLKDKVPYKGIVISLVLVLIPCTIGIVLKSKRPQYMRYVIKGGMIIILLCSVAVTVLSAINVGKSIMFAMTPLLIATSSLMPFIGFLLGYVLSALFCLNGRCRRTVSMETGCQNVQLCSTILNVAFPPEVIGPLFFFPLLYTVFQLGEGLLLIAIFWCYEKFKTPKDKTKMIYTAATTEETIPGALGNGTYKGEDCSPCTA |  | 69.5 µM | 
NTCP M290S (NTCP→ASBT) (Homo sapiens; M290S) (protein) MEAHNASAPFNFTLPPNFGKRPTDLALSVILVFMLFFIMLSLGCTMEFSKIKAHLWKPKGLAIALVAQYGIMPLTAFVLGKVFRLKNIEALAILVCGCSPGGNLSNVFSLAMKGDMNLSIVMTTCSTFCALGMMPLLLYIYSRGIYDGDLKDKVPYKGIVISLVLVLIPCTIGIVLKSKRPQYMRYVIKGGMIIILLCSVAVTVLSAINVGKSIMFAMTPLLIATSSLMPFIGFLLGYVLSALFCLNGRCRRTVSMETGCQNVQLCSTILNVAFPPEVIGPLFFFPLLYSIFQLGEGLLLIAIFWCYEKFKTPKDKTKMIYTAATTEETIPGALGNGTYKGEDCSPCTA |  | 15.9 µM | 
